For series [1], the system named is human glioblastoma stemlike cells and serum-cultured human glioblastoma cells. The following applies: Weichert 2014, FIG. 2; cited from earlier work.
For series [2], the system named is cancer cell lines (renal, ovarian, pancreatic, melanoma, prostate) vs normal human skin fibroblast. Put plainly: CLR1501 uptake in cancer cell lines vs normal fibroblasts (confocal microscopy). Format: cell-based. The following applies: 24 hours, 5 or 7.5 μM, in vitro. An excerpt: Human cancer cell lines were purchased from the American Type Culture Collection (ATCC). They included the following: Caki-2 (renal; clear cell carcinoma), HCT-116 (colorectal carcinoma); MES-SA/Dx5 (uterine sarcoma) [all maintained in McCoy's 5a medium supplemented with 10% fetal bovine serum (FBS)], Ovcar-3 (ovarian adenocarcinoma) [maintained in RPMI medium supplemented with 20% FBS], U87-MG (glioma) [maintained in minimum essential medium supplemented with 10% FBS], Mia Paca-2 (pancreatic carcinoma) (maintained in Dulbecco's modified Eagle's medium supplemented with 10% FBS), PC-3 (prostate carcinoma) (maintained in F-12K medium supplemented with 10% FBS), MDA-MB-231 (triple-negative mammary gland adenocarcinoma) (maintained in Leibovitz's medium supplemented with 10% FBS), and A549 (non-small cell lung carcinoma) (maintained in F-12 medium supplemented with 10% FBS). Normal human skin fibroblasts were purchased from ATCC and grown in Fibroblast Basal Medium PCS-201-030 supplemented with serum-free kit (Fibroblast Growth Kit-Serum-Free PCS-201-040). […]
All cells were maintained at 37° C. in appropriate medium supplemented with 10% FBS and 5% CO2. […] The emission signal of CLR1501 was detected using Alexa Fluor 488 filters (ex/em 480/520 nm). […]

Series [3] has as its system MDA-MB-468, NCI-H1299, NCI-H460, Capan-2, MiaPaCa-1, HT29, HCT116 and PC-3 cancer cell lines. Nature of the series: Cell viability, panel of eight cancer cell lines. In kind it is cell-based. To be noted: serial concentrations. On the procedure:
The cell lines were then measured for cell viability and reported as IC50 for each treatment.
In vivo, free paclitaxel is taken up by cancerous tumor cells at a much lower rate due to the non-specific nature of paclitaxel uptake.

For series [4], the system named is MDA-MB-468 cells. Nature of the series: Annexin V/PI flow cytometry, MDA-MB-468. Format: cell-based. To be noted: MDA-MB-468, 1 uM, 48 hrs.
Series [5] has as its system MDA-MB-468 cells. Nature of the series: Annexin V/PI flow cytometry, MDA-MB-468. Format: cell-based. On the procedure: (§1) Debris was eliminated from this analysis.
MDA-MB-468 cells, were also treated with CLR conjugates (CLR1606 and CLR1607) for 72 hours and with geldanamycin (“GEL”) for 48 hours.
(§2) CLR conjugates appear to require a longer treatment period with cells to induce cell death.
In general terms: In flow cytometry, cells or beads pass a laser one at a time.

A further series deals with PANC-1 cells. Nature of the series: Annexin V/PI flow cytometry, PANC-1. To be noted: table title 72 hours, GEL for 48 hours. Format: cell-based. Here is the method: as §1
PANC-1 cells, a pancreatic cancer cell line, were treated with GEL conjugates (CLR1606 and CLR1607) for 72 hrs and GEL for 48 hours.

In the next series the test system is COLO 829 cells. Nature of the series: Annexin V/PI flow cytometry, COLO 829. Format: cell-based. On the procedure:
as §1
COLO 829 cells, a melanoma cell line, were treated with […] (CLR1606 and CLR1607) for 72 hrs and GEL for 48 hours.
as §2

In another series the test system is 22RV1 cells. Nature of the series: Annexin V/PI flow cytometry, 22RV1. In kind it is cell-based. To be noted: table title 72 hours, GEL for 48 hours. On the procedure: as §1
22RV1 cells, a prostate cancer cell line, were treated with GEL conjugates (CLR1606 and CLR1607) for 72 hrs and GEL for 48 hours. Cell viability was 20.3%, 21.3%, 16.0%, 21.9%, 15.7%, 19.4%, and 28.1% after treatment with no drug, 1 μM CLR1606, 10 μM CLR1606, 1 μM CLR1607, 10 μM CLR1607, 100 nM GEL, and 1 μM GEL, respectively.

Another series has as its system PC-3 cells. Put plainly: 125I-CLR1404 uptake after lipid raft disruption with filipin III. In kind it is cell-based. The following applies: PC-3 cells pretreated with 2 μg/ml filipin III 15 min, then 125I-CLR1404 1 h; vs untreated control cells. Here is the method: PC-3 cells were pretreated with either 2 μg/ml filipin III or vehicle for 15 min, then washed and incubated with 2 μCi of ^125I-CLR1404 for 1 h. The media was removed and the cells were washed with phosphate buffered saline containing 0.1% bovine serum albumin, trypsinized, then split into two samples for determination of cell number by DNA content (A280 compared to a cell line specific standard curve) and counts per minute using a Gamma Counter (Perkin Elmer).
This supports the hypothesis that CLR1404 uses lipid rafts as portals of entry into cancer cells.

Another series deals with C6 glioma. Nature of the series: Rat C6 glioma model, tissue distribution of NM404. In kind it is in vivo. The following applies: C6 glioma-bearing rats, 24 h after tail vein injection. Here is the method:
Materials and Methods: All animals were housed and handled in accordance with the University of Wisconsin Research Animal Resources Center guidelines. Rat C6 glioma cells were propagated in DMEM medium (Life Technologies, Gaithersburg, Md.) supplemented with 10% heat-inactivated FBS (BioWhittaker, Walkersville, Md.), 100 U/ml penicillin G, […] streptomycin, and 0.01 M HEPES (Life Technologies, Gaithersburg, Md.). Intracranial tumor implantation was performed as described previously. Cohen J D, et al., Intracranial C6 glioma model in adult Wistar-Furth rats. J Neuro Oncol 1990 8(1):95-6. Briefly, 1×10^6 C6 cells were resuspended in […] 1.2% methylcellulose and injected into the frontal lobes of anesthetized female Wistar rats (Harlan, Indianapolis, Ind.). Sham-operated animals received intracranial injections of an equal volume of methylcellulose without tumor cells.
Imaging Studies: Ten days after implantation, the presence of intracranial tumors was confirmed with MRI. […]
NM404 [18-(4-iodophenyl)-octadecylphosphocholine] […] In addition, normal brain, blood, kidney, liver, spleen, thyroid, and tumor tissues were weighed, and radioactivity counted in a gamma counter. The tissue distribution of radioactivity was then correlated to brain histology.

Setting [6] is: MDA-MB-468, 1 uM, 72 hrs (Table 3).

With `C[N+](C)(C)CCOP(=O)([O-])OCCCCCCCCCCCCCCCCCCc1ccc(C2=C3C=CC=[N+]3[B-](F)(F)n3cccc32)cc1` [CLR1501], the “uptake compared to normal human astrocytes and fetal human neural stem cells” value in series [1] was “enhanced uptake”. Moreover, the “preferential uptake in cancer cell lines compared to normal fibroblasts” value in [2] is “five to nine-fold”.
As for `CC(=O)O[C@H]1C(=O)[C@@]2(C)[C@H]([C@H](OC(=O)c3ccccc3)[C@]3(O)C[C@H](OC(=O)[C@H](OC(=O)CCCC(=O)Nc4ccc(CCCCCCCCCCCCCCCCCCOP(=O)([O-])OCC[N+](C)(C)C)cc4)[C@@H](NC(=O)c4ccccc4)c4ccccc4)C(C)=C1C3(C)C)[C@]1(OC(C)=O)CO[C@@H]1C[C@@H]2O` [CLR1601], the “ability to reduce cancer cell line viability” value in series [3] is “capable of reducing cell viability”. In addition, in the series with MDA-MB-468 cells [4], the “Late Apoptotic” value was 6 % of total cells and the Live is recorded as 79.4 % of total cells. Also, in the series with MDA-MB-468 cells [5] (setting [6]), the “Early Apoptotic” value is given as 9.83 % of total cells and the Live is recorded as 17 % of total cells. The Live in the series with MDA-MB-468 cells [5] (MDA-MB-468, 5 uM, 72 hrs) is recorded as 17.8 % of total cells.
`CC(=O)O[C@H]1C(=O)[C@]2(C)[C@@H](OC(=O)NCCCC(=O)Nc3ccc(CCCCCCCCCCCCCCCCCCOP(=O)([O-])OCC[N+](C)(C)C)cc3)C[C@H]3OC[C@@]3(OC(C)=O)[C@H]2[C@H](OC(=O)c2ccccc2)[C@]2(O)C[C@H](OC(=O)[C@H](O)[C@@H](NC(=O)c3ccccc3)c3ccccc3)C(C)=C1C2(C)C` [CLR1602]: the “ability to reduce cancer cell line viability” value in [3] was “not capable of significantly reducing cancer cell line viability”.
In the case of `CC(=O)O[C@H]1C(=O)[C@@]2(C)[C@H]([C@H](OC(=O)c3ccccc3)[C@]3(O)C[C@H](OC(=O)[C@H](OC(=O)OCCCCC(=O)Nc4ccc(CCCCCCCCCCCCCCCCCCOP(=O)([O-])OCC[N+](C)(C)C)cc4)[C@@H](NC(=O)c4ccccc4)c4ccccc4)C(C)=C1C3(C)C)[C@]1(OC(C)=O)CO[C@@H]1C[C@@H]2O` [CLR1603], in [3], the “ability to reduce cancer cell line viability” value is “capable of reducing cell viability”. In the series with MDA-MB-468 cells [4], the “Early Apoptotic” value is reported as 1.4 % of total cells and the Live is 81.4 % of total cells. Moreover, in the series on MDA-MB-468 cells [5] (setting [6]), the Live is on record as 22.2 % of total cells and the Necrotic is reported as 22 % of total cells. Besides, the Live with MDA-MB-468 cells [5] (MDA-MB-468, 5 uM, 72 hrs) is 19.7 % of total cells.
`COC1=C2C[C@@H](C)C[C@H](OC)[C@H](O)[C@@H](C)/C=C(\C)[C@H](OC(N)=O)[C@@H](OC)/C=C\C=C(/C)C(=O)NC(=CC1=O)C2=O` [GEL, geldanamycin]: the Live in the series with PANC-1 cells (PANC-1, GEL 100 nM) is on record as 23.3 % of total cells; with PANC-1 cells (PANC-1, GEL 1 uM), 18.9 % of total cells; with MDA-MB-468 cells [5] (MDA-MB-468, GEL 1 uM, table title 72 hours, text: geldanamycin for 48 hours), 26.2 % of total cells; with COLO 829 cells (COLO 829, 100 nM, 48 hrs (Table 9)) it was 36.1 % of total cells; in the series with COLO 829 cells (COLO 829, 1 uM, 48 hrs (Table 9)), 24.6 % of total cells; with COLO 829 cells (COLO 829, GEL 100 nM, Table 5 title 72 hours, GEL for 48 hours) it was 32.4 % of total cells. Also, the Live in the series with COLO 829 cells (COLO 829, GEL 1 uM, Table 5 title 72 hours, GEL for 48 hours) is 18.6 % of total cells; in the series on 22RV1 cells (22RV1, GEL 100 nM), 19.4 % of total cells; with 22RV1 cells (22RV1, GEL 1 uM), 28.1 % of total cells.
Consider `C[N+](C)(C)CCOP(=O)([O-])OCCCCCCCCCCCCCCCCCCc1ccc(I)cc1` [NM404, 18-(4-iodophenyl)-octadecylphosphocholine], for which, in the series with PC-3 cells, the “reduction of uptake when lipid rafts are disrupted” value is on record as roughly 40%. Moreover, the “Tumor to brain ratio (% injected dose/g)” value with C6 glioma is recorded as 10.5.

Values taken from patent publication US9480754B2, “Phospholipid ether analogs as cancer-targeting drug vehicles” (Cellectar Biosciences, Inc., priority 2014, dated 2016).
